In PMC9283466, “In silico identification of two peptides with antibacterial activity against multidrug-resistant Staphylococcus aureus” (NPJ Biofilms and Microbiomes, 2022):
In brackets after ≈: the same amount, converted by molar mass. Read-outs that look alike come from different tables or passages of the source.

Experiments:
[1] = system: LPS-driven NF-kB activation, eLUCidate Raw 264.7 NF-kB reporter cell line; experiment: Anti-inflammatory activity, NF-kB luciferase reporter; type: cell-based, murine; details: 10 ng/ml LPS from E. coli, 6 h
Method: (§1) The inhibitory activity of HG2, HG4 and comparator compounds against LPS and LTA was assessed using eLUCidate™ Raw 264.7 NF-kB reporter cell line (AMSBIO) as previously described. The eLUCidate NF-kB reporter cell line is a stably transfected Raw 264.7 cell line which expresses the Renilla luciferase reporter gene under the transcriptional control of the NF-kB response element, a key transcription factor involved in immune and inflammatory responses. This reporter cell line has been used to measure the induction of various toll-like receptors (TLR) by ligands, including LPS and LTA, therefore providing an effective way to evaluate inhibitors of their activations. Briefly, cells were grown and maintained following the manufacturer’s instructions in Dulbecco’s modified essential medium (DMEM) supplemented with 10% fetal calf serum (FCS), 1% L-glutamine, 1% antibiotics (Invitrogen) and containing 3 µg/ml of puromycin (Sigma-Aldrich, UK). To test the inhibitory activity of HG2 and HG4 on LPS or LTA-driven NF-kB activation, eLUCidate™ Raw 264.7 cells grown on 75 cm^2 flasks were detached using trypsin-EDTA solution (Thermofisher, UK) and seeded into 96-well cell culture plates (Greiner Bio-one, UK) at ~25,000 cells per well (counted using Mallasez’s chamber). The next day, wells were emptied, and cells were exposed to optimal concentrations of LPS or LTA determined from preliminary experiments, (i.e. 10 ng/ml of LPS from E. coli or 10 µg/ml of LTA from S. aureus (Invivogen, UK)) in the presence of increasing concentrations of HG2 or HG4 (from 0 to 500 µg/ml, serial 1:2 dilutions). Pyrrolidine dithiocarbamate (PDTC, 100 µM) and polymyxin B (PMB, 100 µM) (Sigma-Aldrich, UK) were used as positive controls based on their well-known activity as anti-inflammatory molecules and blockers/neutralisers of LPS and LTA, respectively. Importantly, all steps were performed using non-pyrogenic plastics and RNase/DNase molecular biology tips to limit the risk of the presence of a trace of LPS/LTA. After 6 h incubation at 37 °C and 5% CO2, wells were emptied, and the cells were treated with 70 µl of ice-cold PBS containing 1% Triton X-100. After 10 min incubation on ice under orbital shaking at 200 rpm, 50 µL of cell lysates were collected and transferred into white 96-well luminescence plates (Dominique Dutscher) already containing 100 µL of Renilla luciferase substrate (Yelen, France). Luminescence signals of the wells were immediately measured using a microplate reader (Biotek Synergy Mx, UK). The luminescence values were expressed as a percentage of control inflammation corresponding to values obtained after treatment with LPS or LTA in the absence of an inhibitor. The IC50 values of PDTC, PMB, HG2 or HG4 on LPS or LTA-mediated inflammation (i.e. the concentration of molecule causing a reduction of 50% of the luciferase’s induction caused by LPS or LTA) were calculated using GraphPad® Prism 7 software.

[2] = system: LTA-driven NF-kB activation, eLUCidate Raw 264.7 NF-kB reporter cell line; experiment: as above; type: cell-based, murine; details: 10 µg/ml LTA from S. aureus, 6 h
Method: as §1

[3] = system: S. aureus RN4220; experiment: MIC, broth microdilution; type: cell-based, Staphylococcus aureus; details: sensitive
Method: (§2) To determine the antimicrobial activity of the new antimicrobial peptides, HG2 and HG4, their minimum inhibitory concentrations (MICs) were determined by broth microdilution method[51] in cation adjusted Mueller Hinton broth (MHB) following the International Organisation for Standardisation (ISO) 20776-1 standard for MIC testing using a final bacterial inoculum of 5 × 10^5 CFU/ml[52]. […] The peptides dissolved in sterile distilled water were added to bacteria culture and incubated overnight at appropriate conditions. The MICs of the peptides and comparator antibiotics were recorded after 18–24 h. The minimum bactericidal concentrations (MBCs) were also determined and were taken as the lowest concentration of the antimicrobial that prevented the growth of bacterial cells after the subculture of cells (from MIC treatment) onto antibiotic-free media.

[4] = system: P. aeruginosa PA01; experiment: microbe, parasite or virus in culture; type: cell-based, Pseudomonas aeruginosa
Method: as §2

[5] = system: Sal. typhimurium SL1344; experiment: microbe, parasite or virus in culture; type: cell-based, Salmonella enterica serovar Typhimurium
Method: as §2

[6] = system: E. coli K12; experiment: microbe, parasite or virus in culture; type: cell-based, Escherichia coli
Method: as §2

[7] = system: S. aureus ATCC 33591; experiment: microbe, parasite or virus in culture; type: cell-based, Staphylococcus aureus; details: Staphylococcus aureus, ATCC 33591 / MRSA
Method: as §2

[8] = system: S. aureus EMRSA-15; experiment: microbe, parasite or virus in culture; type: cell-based, Staphylococcus aureus
Method: as §2

[9] = system: S. aureus USA300 BAA-1717; experiment: microbe, parasite or virus in culture; type: cell-based, Staphylococcus aureus; details: Staphylococcus aureus, BAA-1717 / MRSA / USA300
Method: as §2

[10] = system: Ent. faecalis JH2-2; experiment: microbe, parasite or virus in culture; type: cell-based, Enterococcus faecalis
Method: as §2

[11] = system: L. monocytogenes NCTC 11994; experiment: microbe, parasite or virus in culture; type: cell-based, Listeria monocytogenes
Method: as §2

[12] = system: MRSA USA300 cells; experiment: Time-kill kinetics; type: cell-based, Staphylococcus aureus; details: 3x MIC, comparator antibiotics, time not stated
Method: The bactericidal activity of HG2, HG4 and comparator antimicrobial compounds was assessed using exponential-phase cultures[14] of MRSA USA300 grown in MHB (1 × 10^6-8 CFU/ml). […] Samples were taken at different time points, serially diluted and inoculated onto MH agar plates using the spread plate technique. After overnight incubation, the colony-forming units per millilitre of cell culture (CFU/ml) was calculated. Experiments were performed in quadruplicates.

[13] = system: K. pneumoniae 518842; experiment: microbe, parasite or virus in culture; type: cell-based, Klebsiella pneumoniae; details: K. pneumoniae 518842; CTX-M
Method: as §2

[14] = system: K. pneumoniae 526903; experiment: microbe, parasite or virus in culture; type: cell-based, Klebsiella pneumoniae; details: K. pneumoniae 526903; sensitive
Method: as §2

[15] = system: K. pneumoniae ATCC 700603; experiment: microbe, parasite or virus in culture; type: cell-based, Klebsiella pneumoniae; details: K. pneumoniae ATCC 700603; SHV-18
Method: as §2

[16] = system: K. pneumoniae NCTC 13442; experiment: microbe, parasite or virus in culture; type: cell-based, Klebsiella pneumoniae; details: K. pneumoniae NCTC 13442; OXA-48
Method: as §2

[17] = system: A. baumannii (IMI, MER resistant; strain ID not given); experiment: microbe, parasite or virus in culture; type: cell-based, Acinetobacter baumannii; details: A. baumannii, no strain ID, MER
Method: as §2

[18] = system: A. baumannii 515722; experiment: microbe, parasite or virus in culture; type: cell-based, Acinetobacter baumannii; details: A. baumannii 515722; sensitive
Method: as §2

[19] = system: A. baumannii 515785; experiment: microbe, parasite or virus in culture; type: cell-based, Acinetobacter baumannii; details: A. baumannii 515785; OXA-23, OXA-50
Method: as §2

[20] = system: A. baumannii 515908; experiment: microbe, parasite or virus in culture; type: cell-based, Acinetobacter baumannii; details: A. baumannii 515908; sensitive
Method: as §2

[21] = system: P. aeruginosa (CF) AMT0060; experiment: microbe, parasite or virus in culture; type: cell-based, Pseudomonas aeruginosa; details: P. aeruginosa (CF) AMT0060
Method: as §2

[22] = system: P. aeruginosa (CF) C3719; experiment: microbe, parasite or virus in culture; type: cell-based, Pseudomonas aeruginosa; details: P. aeruginosa (CF) C3719
Method: as §2

[23] = system: P. aeruginosa (CF) LES400; experiment: microbe, parasite or virus in culture; type: cell-based, Pseudomonas aeruginosa; details: P. aeruginosa (CF) LES400
Method: as §2

[24] = system: P. aeruginosa; experiment: microbe, parasite or virus in culture; type: cell-based, Pseudomonas aeruginosa; details: P. aeruginosa; Supplementary Table 5
Method: as §2

[25] = system: Sal. typhimurium; experiment: microbe, parasite or virus in culture; type: cell-based, Salmonella enterica serovar Typhimurium; details: Sal. typhimurium; Supplementary Table 5
Method: as §2

[26] = system: E. coli; experiment: microbe, parasite or virus in culture; type: cell-based, Escherichia coli; details: E. coli; Supplementary Table 5
Method: as §2

[27] = system: EMRA-15; experiment: microbe, parasite or virus in culture; type: cell-based, Staphylococcus aureus; details: EMRA-15; Supplementary Table 5
Method: as §2

[28] = system: S. aureus; experiment: microbe, parasite or virus in culture; type: cell-based, Staphylococcus aureus; details: S. aureus; Supplementary Table 5
Method: as §2

[29] = system: Ent. faecalis; experiment: microbe, parasite or virus in culture; type: cell-based, Enterococcus faecalis; details: Ent. faecalis; Supplementary Table 5
Method: as §2

[30] = system: List. monocytogenes; experiment: microbe, parasite or virus in culture; type: cell-based, Listeria monocytogenes; details: List. monocytogenes; Supplementary Table 5
Method: as §2

Which results are given for `S=C(S)N1CCCC1` [PDTC, Pyrrolidine dithiocarbamate, reference compound]?
IC50 ([1]; Mus musculus, RAW264.7, read-out: IC50, LPS-mediated inflammation): 10.7 ± 1.2 µg/mL; IC50 ([2]; Mus musculus, RAW264.7, read-out: IC50, LTA-mediated inflammation): 10.8 ± 1.29 µg/mL

Which results are given for `CN[C@H](CC(C)C)C(=O)N[C@H]1C(=O)N[C@@H](CC(N)=O)C(=O)N[C@H]2C(=O)N[C@H]3C(=O)N[C@H](C(=O)N[C@H](C(=O)O)c4cc(O)cc(O)c4-c4cc3ccc4O)[C@H](O)c3ccc(c(Cl)c3)Oc3cc2cc(c3O[C@@H]2O[C@H](CO)[C@@H](O)[C@H](O)[C@H]2O[C@H]2C[C@](C)(N)[C@H](O)[C@H](C)O2)Oc2ccc(cc2Cl)[C@H]1O` [Vancomycin]?
MIC ([3]; Staphylococcus aureus, read-out: MIC): 1 µg/mL (≈ 0.69 µM); MIC ([4]; Pseudomonas aeruginosa, PA01): 64 µg/mL (≈ 44.2 µM); MIC ([5]; Salmonella enterica, TYPHIMURIUM): 256 µg/mL (≈ 177 µM); MIC ([6]; Escherichia coli, K12): 128 µg/mL (≈ 88.3 µM); MIC [7]: 2 µg/mL (≈ 1.38 µM); MIC ([8]; Staphylococcus aureus, MRSA): 2 µg/mL (≈ 1.38 µM); MIC [9]: 2 µg/mL (≈ 1.38 µM); MIC ([10]; Enterococcus faecalis, JH22): 64 µg/mL (≈ 44.2 µM); MIC ([11]; Listeria monocytogenes, NCTC11994): 64 µg/mL (≈ 44.2 µM); reduction in viable cells (time-kill) [12]: ≥ 2 log10 CFU/ml

For polymyxin B [reference compound], which MIC [3] is on record?
Its MIC is 256 µg/mL.

What about the MIC [13] of the same compound?
The MIC was 2 µg/mL.

What about the MIC [14] of the same compound?
The MIC was 4 µg/mL.

And the MIC [15]?
The MIC was 2 µg/mL.

And the MIC [16]?
The MIC was 8 µg/mL.

And the MIC [17]?
The MIC was 0.25 µg/mL.

And the MIC [18]?
Its MIC is 0.25 µg/mL.

What about the MIC [19] of the same compound?
Its MIC is 0.5 µg/mL.

What about the MIC [20] of the same compound?
Its MIC is 0.5 µg/mL.

And the MIC [21]?
The MIC was 0.5 µg/mL.

What about the MIC [22] of the same compound?
Its MIC is 1 µg/mL.

What about the MIC [23] of the same compound?
Its MIC is 1 µg/mL.

And the MIC ([4]; P. aeruginosa PA01)?
Its MIC is 2 µg/mL.

And the “Minimum inhibitory Concentrations MICs” value [24]?
Its value is 1.95 µg/mL.

And the MIC ([5]; Sal. typhimurium SL1344)?
Its MIC is 2 µg/mL.

And the “Minimum inhibitory Concentrations MICs” value [25]?
The value was 1.95 µg/mL.

What about the MIC ([6]; E. coli K12) of the same compound?
Its MIC is 2 µg/mL.

And the “Minimum inhibitory Concentrations MICs” value [26]?
Its value is 1.95 µg/mL.

What about the “Minimum inhibitory Concentrations MICs” value [27] of the same compound?
Its value is 250 µg/mL.

What about the MIC ([8]; S. aureus EMRSA-15, resistances MRSA, Cip) of the same compound?
The MIC was 256 µg/mL.

What about the “Minimum inhibitory Concentrations MICs” value [28] of the same compound?
Its value is 250 µg/mL.

What about the MIC ([10]; Ent. faecalis JH2-2) of the same compound?
Its MIC is 32 µg/mL.

And the “Minimum inhibitory Concentrations MICs” value [29]?
The value was 31.25 µg/mL.

And the MIC ([11]; L. monocytogenes NCTC 11994)?
The MIC was 64 µg/mL.

What about the “Minimum inhibitory Concentrations MICs” value [30] of the same compound?
The value was 62.5 µg/mL.

What about the “IC50, LPS-mediated inflammation” value [1] of the same compound?
The value was 62.26 ± 4.01 µg/mL.

And the “IC50, LTA-mediated inflammation” value [2]?
The value was 61.34 ± 3.47 µg/mL.
